Results reported in patent publication US20080009418A1, “Selective Inhibitors” (Alchemia LTD., priority 2004, published 2008).

Assays:
Human δ-opioid (DOP) = target: T1, Human δ-opioid (DOP) (Homo sapiens, UniProt P41143); test: Radioligand binding, human δ-opioid (DOP) membranes, FlashPlate, [3H]-Bremazocine; details: compound at 10 μM, [3H]-Bremazocine
T1 construct: purchased Perkin Elmer Biosignal
In short: (§1)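 Cloned human receptor membranes were coated onto FlashPlate wells and incubated with radioligand and compound (added from a 0.5 mM DMSO daughter plate) for 1 hour at room temperature in the dark. Scintillation counting gave percent inhibition, with DMSO defining total and reference ligand defining non-specific binding.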

Human κ-Opioid (KOP) = target: T2, Human κ-Opioid (KOP) (Homo sapiens, UniProt P41145); test: Radioligand binding, human κ-opioid (KOP) membranes, filtration, [3H]-Diprenorphine; details: compound at 10 μM, [3H]-Diprenorphine
T2 construct: purchased Perkin Elmer Biosignal
T2 sequence (P41145 whole entry): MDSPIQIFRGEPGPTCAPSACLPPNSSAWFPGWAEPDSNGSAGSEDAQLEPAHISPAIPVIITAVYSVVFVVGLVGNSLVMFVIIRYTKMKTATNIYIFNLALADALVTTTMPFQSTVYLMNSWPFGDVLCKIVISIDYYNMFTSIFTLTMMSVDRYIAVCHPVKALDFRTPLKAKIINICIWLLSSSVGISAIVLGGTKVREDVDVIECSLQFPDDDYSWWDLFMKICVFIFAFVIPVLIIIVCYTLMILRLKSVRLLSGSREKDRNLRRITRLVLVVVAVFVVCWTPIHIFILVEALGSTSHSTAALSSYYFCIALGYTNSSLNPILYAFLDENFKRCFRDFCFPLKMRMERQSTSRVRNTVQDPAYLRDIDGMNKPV
In short: (§2)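 Percent inhibition of radioligand binding measured on recombinant human membranes: NK1 with [125I]-Substance P, KOP with [3H]-Diprenorphine. Incubation 1 h at room temperature, then harvest onto 0.3% PEI-soaked filters, cold Tris-HCl pH 7.4 washes and scintillation counting; non-specific binding from reference ligand wells.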

Human Melanocortin (MC3) = target: T3, Human Melanocortin (MC3) (Homo sapiens, UniProt P41968); test: Radioligand binding, human melanocortin MC3 membranes, FlashPlate, [125I]-NDP-αMSH; details: compound at 10 μM, [125I]-NDP-αMSH
T3 construct: purchased Perkin Elmer Biosignal
T3 sequence (P41968 whole entry): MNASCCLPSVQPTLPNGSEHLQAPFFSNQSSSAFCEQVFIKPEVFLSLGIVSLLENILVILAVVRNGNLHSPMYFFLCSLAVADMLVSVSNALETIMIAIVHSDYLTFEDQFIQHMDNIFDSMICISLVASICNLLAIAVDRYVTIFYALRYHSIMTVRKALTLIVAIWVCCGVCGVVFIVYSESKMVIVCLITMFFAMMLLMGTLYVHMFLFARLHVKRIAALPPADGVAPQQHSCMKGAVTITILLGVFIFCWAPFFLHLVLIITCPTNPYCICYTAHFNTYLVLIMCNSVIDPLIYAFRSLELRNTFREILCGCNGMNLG
In short: as §1

Human Melanocortin (MC4) = target: T4, Human Melanocortin (MC4) (Homo sapiens, UniProt P32245); test: Radioligand binding, human melanocortin MC4 membranes, FlashPlate, [125I]-NDP-αMSH; details: compound at 10 μM, [125I]-NDP-αMSH
T4 construct: purchased Perkin Elmer Biosignal
T4 sequence (P32245 whole entry): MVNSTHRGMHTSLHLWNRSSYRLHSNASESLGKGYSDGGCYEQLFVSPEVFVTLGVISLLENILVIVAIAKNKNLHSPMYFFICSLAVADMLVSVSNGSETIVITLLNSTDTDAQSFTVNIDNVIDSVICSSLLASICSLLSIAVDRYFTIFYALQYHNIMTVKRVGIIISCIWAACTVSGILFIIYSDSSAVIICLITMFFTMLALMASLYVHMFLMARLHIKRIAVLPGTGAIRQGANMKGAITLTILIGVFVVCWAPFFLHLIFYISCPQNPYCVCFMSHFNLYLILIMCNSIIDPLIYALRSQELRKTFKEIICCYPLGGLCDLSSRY
In short: as §1

Human melanocortin (MC5) = target: T5, Human melanocortin (MC5) (Homo sapiens, UniProt P33032); test: Radioligand binding, human melanocortin MC5 membranes, FlashPlate, [125I]-NDP-αMSH; details: compound at 10 μM, [125I]-NDP-αMSH
T5 construct: purchased Perkin Elmer Biosignal
T5 sequence (P33032 whole entry): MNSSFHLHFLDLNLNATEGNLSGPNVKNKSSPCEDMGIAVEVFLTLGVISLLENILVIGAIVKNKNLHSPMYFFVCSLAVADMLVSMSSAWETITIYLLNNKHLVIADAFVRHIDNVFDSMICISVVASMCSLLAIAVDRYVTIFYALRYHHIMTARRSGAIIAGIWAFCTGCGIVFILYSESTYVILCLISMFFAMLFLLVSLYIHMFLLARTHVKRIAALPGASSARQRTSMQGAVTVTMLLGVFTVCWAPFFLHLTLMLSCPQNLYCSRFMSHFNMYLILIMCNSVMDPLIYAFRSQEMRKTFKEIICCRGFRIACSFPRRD
In short: as §1

[1] = target: T6, Human melanin-concentrating hormone (MCH1) (Homo sapiens, UniProt Q99705); test: Radioligand binding, human melanin-concentrating hormone MCH1 membranes, FlashPlate, [125I]-S36057; details: compound at 10 μM
T6 construct: purchased Perkin Elmer Biosignal
T6 sequence (Q99705 whole entry): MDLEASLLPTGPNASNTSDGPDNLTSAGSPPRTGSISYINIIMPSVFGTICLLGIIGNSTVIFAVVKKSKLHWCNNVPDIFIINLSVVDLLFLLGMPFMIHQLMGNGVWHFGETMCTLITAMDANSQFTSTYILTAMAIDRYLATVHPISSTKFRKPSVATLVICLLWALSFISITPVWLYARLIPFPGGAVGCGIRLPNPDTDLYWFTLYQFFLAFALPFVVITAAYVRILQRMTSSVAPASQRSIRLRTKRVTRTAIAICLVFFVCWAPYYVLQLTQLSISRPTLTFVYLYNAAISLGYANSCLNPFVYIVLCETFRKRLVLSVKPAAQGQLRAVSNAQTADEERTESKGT
In short: as §1

Human μ-opioid (MOP) = target: T7, Human μ-opioid (MOP) (Homo sapiens, UniProt P35372); test: Radioligand binding, human μ-opioid (MOP) membranes, FlashPlate, [3H]-Naloxone; details: compound at 10 μM, [3H]-Naloxone
T7 construct: purchased Perkin Elmer Biosignal
T7 sequence (P35372 whole entry): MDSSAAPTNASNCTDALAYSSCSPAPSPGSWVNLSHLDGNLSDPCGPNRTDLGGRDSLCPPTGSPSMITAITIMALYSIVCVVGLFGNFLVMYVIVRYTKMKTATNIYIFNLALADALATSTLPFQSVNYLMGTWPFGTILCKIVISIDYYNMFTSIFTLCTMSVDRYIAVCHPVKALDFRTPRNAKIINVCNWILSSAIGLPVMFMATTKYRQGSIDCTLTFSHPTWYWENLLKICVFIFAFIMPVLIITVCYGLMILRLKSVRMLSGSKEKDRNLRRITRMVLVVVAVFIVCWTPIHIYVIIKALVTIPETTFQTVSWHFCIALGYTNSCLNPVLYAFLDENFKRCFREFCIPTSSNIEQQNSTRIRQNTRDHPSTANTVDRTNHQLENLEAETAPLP
In short: as §1

Human neurokinin (NK1) = target: T8, Human neurokinin (NK1) (Homo sapiens, UniProt P25103); test: Radioligand binding, human neurokinin NK1 membranes, filtration, [125I]-Substance P; details: compound at 10 μM, [125I]-Substance P
T8 construct: purchased Perkin Elmer Biosignal
T8 sequence (P25103 whole entry): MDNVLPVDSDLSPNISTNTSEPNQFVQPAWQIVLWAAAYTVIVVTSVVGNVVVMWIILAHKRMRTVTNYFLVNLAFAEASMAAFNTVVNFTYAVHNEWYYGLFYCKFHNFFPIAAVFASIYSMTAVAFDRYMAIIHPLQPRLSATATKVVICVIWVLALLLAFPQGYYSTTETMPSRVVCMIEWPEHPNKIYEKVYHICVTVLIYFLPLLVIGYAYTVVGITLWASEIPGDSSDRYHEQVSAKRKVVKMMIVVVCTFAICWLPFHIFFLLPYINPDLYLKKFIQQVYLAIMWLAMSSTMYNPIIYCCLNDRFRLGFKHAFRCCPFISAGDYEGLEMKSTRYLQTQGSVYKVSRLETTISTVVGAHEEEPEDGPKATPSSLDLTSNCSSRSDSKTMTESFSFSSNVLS
In short: as §2

[2] = target: T9, Human neuropeptide Y (NPY-Y1) (Homo sapiens, UniProt P25929); test: Radioligand binding, human neuropeptide Y NPY-Y1 membranes, FlashPlate, [125I]-PYY; details: compound at 10 μM, [125I]-PYY
T9 construct: purchased Perkin Elmer Biosignal
T9 sequence (P25929 1-384): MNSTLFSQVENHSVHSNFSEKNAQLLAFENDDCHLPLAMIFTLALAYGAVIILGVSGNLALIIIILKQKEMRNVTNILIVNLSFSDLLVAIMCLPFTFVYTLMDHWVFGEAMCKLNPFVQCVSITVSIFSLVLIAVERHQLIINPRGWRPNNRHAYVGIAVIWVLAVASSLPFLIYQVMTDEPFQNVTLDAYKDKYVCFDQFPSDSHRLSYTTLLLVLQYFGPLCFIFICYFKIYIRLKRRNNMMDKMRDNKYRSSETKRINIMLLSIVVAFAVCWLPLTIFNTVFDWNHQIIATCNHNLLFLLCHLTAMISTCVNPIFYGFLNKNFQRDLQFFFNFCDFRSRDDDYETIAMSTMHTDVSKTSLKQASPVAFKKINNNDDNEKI
In short: as §1

Human opioid (ORL1) = target: T10, Human opioid (ORL1) (Homo sapiens, UniProt P41146); test: Radioligand binding, human opioid ORL1 membranes, FlashPlate, [125I]-Nociceptin; details: compound at 10 μM, [125I]-Nociceptin
T10 construct: purchased Perkin Elmer Biosignal
T10 sequence (P41146 whole entry): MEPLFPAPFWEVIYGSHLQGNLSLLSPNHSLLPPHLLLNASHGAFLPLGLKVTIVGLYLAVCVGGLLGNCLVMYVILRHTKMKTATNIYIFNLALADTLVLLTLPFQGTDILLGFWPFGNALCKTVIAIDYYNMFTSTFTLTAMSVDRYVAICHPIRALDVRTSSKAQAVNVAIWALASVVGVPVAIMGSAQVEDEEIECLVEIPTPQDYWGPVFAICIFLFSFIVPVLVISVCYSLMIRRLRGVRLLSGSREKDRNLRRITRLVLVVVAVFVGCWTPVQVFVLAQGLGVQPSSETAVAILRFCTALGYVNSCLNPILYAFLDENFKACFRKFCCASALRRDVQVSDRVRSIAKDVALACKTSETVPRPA
In short: as §1

Mouse urotensin (mUR2) = target: T11, Mouse urotensin (mUR2) (Mus musculus, UniProt Q8VIH9); test: Radioligand binding, mouse urotensin mUR2 membranes, FlashPlate, [125I]-Urotensin II; details: compound at 10 μM, [125I]-Urotensin II
T11 construct: purchased Perkin Elmer Biosignal
T11 sequence (Q8VIH9 1-385): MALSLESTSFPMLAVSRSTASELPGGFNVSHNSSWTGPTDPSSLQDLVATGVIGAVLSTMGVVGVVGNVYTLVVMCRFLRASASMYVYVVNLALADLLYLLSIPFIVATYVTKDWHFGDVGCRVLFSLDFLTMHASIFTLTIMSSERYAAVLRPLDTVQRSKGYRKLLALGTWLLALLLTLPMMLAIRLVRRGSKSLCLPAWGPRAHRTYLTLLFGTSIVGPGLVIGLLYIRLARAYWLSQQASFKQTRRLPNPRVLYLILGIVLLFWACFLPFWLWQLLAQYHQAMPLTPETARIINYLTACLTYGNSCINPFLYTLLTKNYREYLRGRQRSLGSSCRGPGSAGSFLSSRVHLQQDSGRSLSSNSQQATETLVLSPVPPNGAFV
In short: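 Cloned mouse urotensin (mUR2) receptor membranes from Perkin Elmer Biosignal were immobilized in FlashPlate microplates using a proprietary coating. Each well got 19.5 μl buffer, then 0.5 μl of DMSO, reference ligand, or compound. Adding 5 μl of [125I]-Urotensin II, diluted to 5× final concentration in binding buffer, started binding. Plates were sealed with TopSeal-A and incubated 1 hour at room temperature in the dark. Wells were counted for 30 seconds each on a TopCount after a 60-second delay, and percentage inhibition was calculated.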

T1 sequence (P41143 whole entry): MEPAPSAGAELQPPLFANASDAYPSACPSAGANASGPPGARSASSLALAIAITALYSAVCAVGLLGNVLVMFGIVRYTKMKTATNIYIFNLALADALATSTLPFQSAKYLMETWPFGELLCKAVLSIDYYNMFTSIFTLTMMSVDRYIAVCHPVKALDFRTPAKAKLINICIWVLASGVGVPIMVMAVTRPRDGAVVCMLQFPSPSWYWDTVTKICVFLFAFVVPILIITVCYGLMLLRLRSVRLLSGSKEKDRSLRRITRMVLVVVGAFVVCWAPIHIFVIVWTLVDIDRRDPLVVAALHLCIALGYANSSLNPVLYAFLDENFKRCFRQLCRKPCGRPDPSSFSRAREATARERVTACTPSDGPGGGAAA

CSC1OC(COCc2ccc(Cl)cc2)C(O)C(OCc2ccc(Cl)cc2)C1NC(=O)CN (stereo not shown) [compound 269]
A1: inhibition of radioligand binding (Human δ-opioid (DOP); FlashPlate): − (“−” indicates less than 50% inhibition at 10 μM) | A2: inhibition of radioligand binding (Human κ-Opioid (KOP); filtration): − (“−” indicates less than 50% inhibition at 10 μM) | A3: inhibition of radioligand binding (Human Melanocortin (MC3); FlashPlate): − (“−” indicates less than 50% inhibition at 10 μM) | A4: inhibition of radioligand binding (Human Melanocortin (MC4); FlashPlate): − (“−” indicates less than 50% inhibition at 10 μM) | A5: inhibition of radioligand binding (Human melanocortin (MC5); FlashPlate): − (“−” indicates less than 50% inhibition at 10 μM) | A6: inhibition of radioligand binding ([1]; [125I]-S36057, FlashPlate): − (“−” indicates less than 50% inhibition at 10 μM) | A7: inhibition of radioligand binding (Human μ-opioid (MOP); FlashPlate): − (“−” indicates less than 50% inhibition at 10 μM) | A8: inhibition of radioligand binding (Human neurokinin (NK1); filtration): + (“+” indicates greater than 50% inhibition at 10 μM) | A9: inhibition of radioligand binding ([2]; FlashPlate): − (“−” indicates less than 50% inhibition at 10 μM) | A10: inhibition of radioligand binding (Human opioid (ORL1); FlashPlate): − (“−” indicates less than 50% inhibition at 10 μM) | A11: inhibition of radioligand binding (Mouse urotensin (mUR2); FlashPlate): − (“−” indicates less than 50% inhibition at 10 μM)

COCC1OC(OCc2ccccc2)C(NC(=O)CCNC(=N)N)C(OCc2ccc(Cl)cc2)C1O (stereo not shown) [compound 179]
A1 radioligand binding, percentage inhibition (Human δ-opioid (DOP)): + (“+” indicates greater than 50% inhibition at 10 μM) | A2 radioligand binding, percentage inhibition (Human κ-Opioid (KOP)): − (“−” indicates less than 50% inhibition at 10 μM) | A3 radioligand binding, percentage inhibition (Human Melanocortin (MC3)): + (“+” indicates greater than 50% inhibition at 10 μM) | A4 radioligand binding, percentage inhibition (Human Melanocortin (MC4)): + (“+” indicates greater than 50% inhibition at 10 μM) | A5 radioligand binding, percentage inhibition (Human melanocortin (MC5)): + (“+” indicates greater than 50% inhibition at 10 μM) | A6 radioligand binding, percentage inhibition ([1]; [125I]-S36057): + (“+” indicates greater than 50% inhibition at 10 μM) | A7 radioligand binding, percentage inhibition (Human μ-opioid (MOP)): − (“−” indicates less than 50% inhibition at 10 μM) | A8 radioligand binding, percentage inhibition (Human neurokinin (NK1)): + (“+” indicates greater than 50% inhibition at 10 μM) | A9 radioligand binding, percentage inhibition [2]: − (“−” indicates less than 50% inhibition at 10 μM) | A10 radioligand binding, percentage inhibition (Human opioid (ORL1)): − (“−” indicates less than 50% inhibition at 10 μM) | A11 radioligand binding, percentage inhibition (Mouse urotensin (mUR2)): − (“−” indicates less than 50% inhibition at 10 μM)

NCCCC(=O)NC1C(OCc2ccccc2)OC(COCc2ccccc2)C(O)C1OCc1ccccc1 (stereo not shown) [compound 379]
A1: inhibition of radioligand binding, human δ-opioid (DOP) (Human δ-opioid (DOP)): − (“−” indicates less than 50% inhibition at 10 μM) | A2: inhibition of radioligand binding, human κ-opioid (KOP) (Human κ-Opioid (KOP)): − (“−” indicates less than 50% inhibition at 10 μM) | A3: inhibition of radioligand binding, human melanocortin (MC3) (Human Melanocortin (MC3)): − (“−” indicates less than 50% inhibition at 10 μM) | A4: inhibition of radioligand binding, human melanocortin (MC4) (Human Melanocortin (MC4)): − (“−” indicates less than 50% inhibition at 10 μM) | A5: inhibition of radioligand binding, human melanocortin (MC5) (Human melanocortin (MC5)): + (“+” indicates greater than 50% inhibition at 10 μM) | A6: inhibition of radioligand binding, human melanin-concentrating hormone (MCH1) ([1]; [125I]-S36057): − (“−” indicates less than 50% inhibition at 10 μM) | A7: inhibition of radioligand binding, human μ-opioid (MOP) (Human μ-opioid (MOP)): − (“−” indicates less than 50% inhibition at 10 μM) | A8: inhibition of radioligand binding, human neurokinin (NK1) (Human neurokinin (NK1)): + (“+” indicates greater than 50% inhibition at 10 μM) | A9: inhibition of radioligand binding, human neuropeptide Y (NPY-Y1) [2]: − (“−” indicates less than 50% inhibition at 10 μM) | A10: inhibition of radioligand binding, human opioid (ORL1) (Human opioid (ORL1)): − (“−” indicates less than 50% inhibition at 10 μM) | A11: inhibition of radioligand binding, mouse urotensin (mUR2) (Mouse urotensin (mUR2)): − (“−” indicates less than 50% inhibition at 10 μM)

NCCC(=O)NC1C(OCc2ccc(Cl)cc2)OC(COCc2ccc3ccccc3c2)C(O)C1OCc1ccc2ccccc2c1 (single isomer, unassigned) [compound 477]
A1: inhibition of radioligand binding, human δ-opioid (DOP) (Human δ-opioid (DOP)): − (“−” indicates less than 50% inhibition at 10 μM) | A2: inhibition of radioligand binding, human κ-opioid (KOP) (Human κ-Opioid (KOP)): − (“−” indicates less than 50% inhibition at 10 μM) | A3: inhibition of radioligand binding, human melanocortin (MC3) (Human Melanocortin (MC3); 10 µM): − (“−” indicates less than 50% inhibition at 10 μM) | A4: inhibition of radioligand binding, human melanocortin (MC4) (Human Melanocortin (MC4); 10 µM): − (“−” indicates less than 50% inhibition at 10 μM) | A5: inhibition of radioligand binding, human melanocortin (MC5) (Human melanocortin (MC5)): + (“+” indicates greater than 50% inhibition at 10 μM) | A6: inhibition of radioligand binding, human melanin-concentrating hormone (MCH1) ([1]; [125I]-S36057, 10 µM): − (“−” indicates less than 50% inhibition at 10 μM) | A7: inhibition of radioligand binding, human μ-opioid (MOP) (Human μ-opioid (MOP)): − (“−” indicates less than 50% inhibition at 10 μM) | A8: inhibition of radioligand binding, human neurokinin (NK1) (Human neurokinin (NK1)): + (“+” indicates greater than 50% inhibition at 10 μM) | A9: inhibition of radioligand binding, human neuropeptide Y (NPY-Y1) [2]: − (“−” indicates less than 50% inhibition at 10 μM) | A10: inhibition of radioligand binding, human opioid (ORL1) (Human opioid (ORL1); 10 µM): + (“+” indicates greater than 50% inhibition at 10 μM) | A11: inhibition of radioligand binding, mouse urotensin (mUR2) (Mouse urotensin (mUR2)): − (“−” indicates less than 50% inhibition at 10 μM)

N=C(N)NCC(=O)NC1C(OCc2ccc(-c3ccccc3)cc2)OC(COCc2ccc3ccccc3c2)C(O)C1OCc1ccc(-c2ccccc2)cc1 (stereo not shown) [compound 405]
A1: inhibition of radioligand binding (Human δ-opioid (DOP); human DOP membranes): − (“−” indicates less than 50% inhibition at 10 μM) | A2: inhibition of radioligand binding (Human κ-Opioid (KOP); human KOP membranes): − (“−” indicates less than 50% inhibition at 10 μM) | A3: inhibition of radioligand binding (Human Melanocortin (MC3); human MC3 membranes): + (“+” indicates greater than 50% inhibition at 10 μM) | A4: inhibition of radioligand binding (Human Melanocortin (MC4); human MC4 membranes): − (“−” indicates less than 50% inhibition at 10 μM) | A5: inhibition of radioligand binding (Human melanocortin (MC5); human MC5 membranes): + (“+” indicates greater than 50% inhibition at 10 μM) | A6: inhibition of radioligand binding ([1]; [125I]-S36057, human MCH1 membranes): − (“−” indicates less than 50% inhibition at 10 μM) | A7: inhibition of radioligand binding (Human μ-opioid (MOP); human MOP membranes): − (“−” indicates less than 50% inhibition at 10 μM) | A8: inhibition of radioligand binding (Human neurokinin (NK1); human NK1 membranes): + (“+” indicates greater than 50% inhibition at 10 μM) | A9: inhibition of radioligand binding ([2]; human NPY-Y1 membranes): − (“−” indicates less than 50% inhibition at 10 μM) | A10: inhibition of radioligand binding (Human opioid (ORL1); human ORL1 membranes): − (“−” indicates less than 50% inhibition at 10 μM) | A11: inhibition of radioligand binding (Mouse urotensin (mUR2); mouse mUR2 membranes): − (“−” indicates less than 50% inhibition at 10 μM)
